The compounds below were run against T1, interaction between VCAM-1 and VLA-4 (Homo sapiens, UniProt P05556+P13612) (assay: U937/VCAM-1 cell adhesion test: adhesion of U937 cells to hVCAM-1(1-3)-IgG). Settings: human U937 cells (ATCC CRL 1593) adhering to hVCAM-1(1-3)-IgG; concentration giving 50% inhibition of adhesion.
T1 construct: the VLA-4 integrins, are supplied in their natural form as surface molecules on human U937 cells; host or cells: U937 cells carry the endogenous VLA-4; The partner hVCAM-1(1-3)-IgG was secreted by transfected COS cells (ATCC CRL1651) and used as culture supernatant
T1 sequence (P13612 34-1032): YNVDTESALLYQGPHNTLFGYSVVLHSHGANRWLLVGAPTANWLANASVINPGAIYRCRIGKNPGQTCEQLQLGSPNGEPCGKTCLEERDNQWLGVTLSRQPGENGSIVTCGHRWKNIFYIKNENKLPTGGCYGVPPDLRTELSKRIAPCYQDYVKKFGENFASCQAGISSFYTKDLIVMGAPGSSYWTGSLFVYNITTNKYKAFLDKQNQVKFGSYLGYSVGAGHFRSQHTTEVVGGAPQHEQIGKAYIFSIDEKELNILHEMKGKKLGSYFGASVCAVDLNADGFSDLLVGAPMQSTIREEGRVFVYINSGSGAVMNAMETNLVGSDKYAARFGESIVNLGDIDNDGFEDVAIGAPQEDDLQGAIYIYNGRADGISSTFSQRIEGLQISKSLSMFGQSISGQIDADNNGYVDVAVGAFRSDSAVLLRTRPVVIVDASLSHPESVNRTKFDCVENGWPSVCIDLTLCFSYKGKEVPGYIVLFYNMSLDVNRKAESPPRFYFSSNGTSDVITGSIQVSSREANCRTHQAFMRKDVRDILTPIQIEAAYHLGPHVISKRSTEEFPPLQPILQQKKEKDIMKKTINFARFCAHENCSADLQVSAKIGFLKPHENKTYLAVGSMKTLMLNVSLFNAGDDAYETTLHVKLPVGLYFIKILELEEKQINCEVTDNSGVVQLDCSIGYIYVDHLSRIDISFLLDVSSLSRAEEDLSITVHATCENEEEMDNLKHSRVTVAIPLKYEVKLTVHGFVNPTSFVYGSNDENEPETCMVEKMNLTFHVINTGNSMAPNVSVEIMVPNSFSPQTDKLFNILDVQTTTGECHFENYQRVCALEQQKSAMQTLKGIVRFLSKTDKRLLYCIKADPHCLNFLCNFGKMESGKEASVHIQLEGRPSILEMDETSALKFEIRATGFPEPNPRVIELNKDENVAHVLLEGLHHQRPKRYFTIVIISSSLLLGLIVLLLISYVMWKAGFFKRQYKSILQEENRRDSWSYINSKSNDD
T1 sequence (P05556 21-798): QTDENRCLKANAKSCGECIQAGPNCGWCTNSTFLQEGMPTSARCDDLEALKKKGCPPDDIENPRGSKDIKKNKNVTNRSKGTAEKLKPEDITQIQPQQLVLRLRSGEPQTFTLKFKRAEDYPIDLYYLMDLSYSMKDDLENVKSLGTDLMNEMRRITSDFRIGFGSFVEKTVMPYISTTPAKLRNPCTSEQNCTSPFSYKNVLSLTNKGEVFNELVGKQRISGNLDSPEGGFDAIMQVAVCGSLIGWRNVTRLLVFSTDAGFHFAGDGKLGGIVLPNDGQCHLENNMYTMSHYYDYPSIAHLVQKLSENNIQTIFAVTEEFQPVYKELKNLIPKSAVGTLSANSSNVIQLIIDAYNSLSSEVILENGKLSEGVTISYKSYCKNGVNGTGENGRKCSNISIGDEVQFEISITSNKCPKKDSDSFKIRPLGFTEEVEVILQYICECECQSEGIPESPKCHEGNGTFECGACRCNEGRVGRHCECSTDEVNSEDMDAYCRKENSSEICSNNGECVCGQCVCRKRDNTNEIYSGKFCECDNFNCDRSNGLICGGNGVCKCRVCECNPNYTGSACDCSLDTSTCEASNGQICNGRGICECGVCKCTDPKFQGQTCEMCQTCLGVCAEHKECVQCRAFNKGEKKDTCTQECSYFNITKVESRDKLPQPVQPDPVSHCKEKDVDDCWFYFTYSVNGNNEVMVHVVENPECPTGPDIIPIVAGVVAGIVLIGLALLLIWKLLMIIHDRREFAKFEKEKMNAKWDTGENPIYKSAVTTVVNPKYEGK
Assay type: cell-based
Source text: The test method used for the activity of the compounds of the formula I on the interaction between VCAM-1 and VLA-4 is an assay which is specific for this interaction. The cellular binding components, i.e. the VLA-4 integrins, are supplied in their natural form as surface molecules on human U937 cells (ATCC CRL 1593), which belong to the leukocytes group. The specific binding components used are genetically engineered recombinant soluble fusion proteins, consisting of the extracytoplasmatic domain of human VCAM-1 and the constant region of a human immunoglobulin of the subclass IgGl.
Assay for the Measurement of the Adhesion of U937 Cells (ATCC CRL 1593) to hVCAM-1(1-3)-IgG
1. Preparation of Human VCAM-1(1-3)-IgG and Human CD4-IgG
A genetic construct for the expression of the extracellular domain of human VCAM-1, associated with the genetic sequence of the heavy chain of human immunoglobulin IgGI (hinge, CH2 and CH3 regions), from Dr. Brian Seed, Massachusetts General Hospital, Boston, USA was employed (cf. Damle and Aruffo, Proc. Natl. Acad. Sci. USA 1991, 88, 6403-6407). The soluble fusion protein hVCAM-1(1-3)-IgG contained the three amino-terminal extracellular immunoglobulin-like domains of human VCAM-1 (Damle and Aruffo, Proc. Natl. Acad. Sci. USA 1991, 88, 6403-6407). CD4-IgG (Zettlmeissl et al., DNA and Cell Biology 1990, 9, 347) served as a fusion protein for negative controls. The recombinant proteins were expressed as soluble proteins after DEAE/dextran-mediated DNA transfection in COS cells (ATCC CRL1651) according to standard procedures (Ausubel et al., Current Protocols in Molecular Biology, John Wiley & Sons, Inc., 1994).
2. Assay for the Measurement of the Adhesion of U937 Cells to hVCAM-1(1-3)-IgG
2.1 96-well microtiter test plates (Nunc Maxisorb) were incubated at room temperature for 1 hour with 100 μl/well of a goat-anti-human IgG antibody solution (10 μg/ml in 50 mM tris, pH 9.5). After removal of the antibody solution, washing was carried out once with PBS.
2.2 150 μl/well of a blocking buffer (1% BSA in PBS) was incubated on the plates at room temperature for 0.5 hour. After removal of the blocking buffer, washing was carried out once with PBS.
2.3 100 μl per well of a cell culture supernatant of transfected COS cells were incubated on the plates at room temperature for 1.5 hours. The COS cells were transfected with a plasmid which codes for the three N-terminal immunoglobulin-like domains of VCAM-1, coupled to the Fc part of human IgG, (hVCAM-1(1-3)-IgG). The content of hVCAM-1(1-3)-IgG was about 0.5-1 μg/ml. After removal of the culture supernatant, washing was carried out once with PBS.
2.4 The plates were incubated at room temperature for 20 minutes with 100 μl/well of Fc receptor blocking buffer (1 mg/ml of γ-globulin, 100 mM NaCl, 100 μM MgCl2, 100 μM MnCl2, 100 μM CaCl2, 1 mg/ml of BSA in 50 mM HEPES, pH 7.5). After removal of the Fc receptor blocking buffer, washing was carried out once with PBS.
2.5 20 μl of binding buffer (100 mM NaCl, 100 μM MgCl2, 100 μM MnCl2, 100 μM CaCl2, 1 mg/ml of BSA in 50 mM HEPES, pH 7.5) were initially introduced, and the substances to be tested were added in 10 μl of binding buffer and incubated for 20 minutes. The controls used were antibodies against VCAM-1 (BBT, No. BBA6) and against VLA-4 (Immunotech, No. 0764).
2.6 U937 cells were incubated in Fc receptor blocking buffer for 20 minutes and then added by pipette in a concentration of 1×10^6/ml and in an amount of 100 μl per well ([…]).
2.7 The plates were slowly immersed at an angle of 45° in stop buffer (100 mM NaCl, 100 μM MgCl2, 100 μM MnCl2, 100 μM CaCl2 in 25 mM tris, pH 7.5) and shaken off. The process was repeated.
2.8 50 μl/well of a dye solution (16.7 μg/ml of Hoechst Dye 33258, 4% formaldehyde, 0.5% Triton X-100 in PBS) were then incubated on the plates for 15 minutes. […]

SMILES | IC50
CC(C)C[C@@H](C(=O)N[C@H](C)CC(=O)O)N1C(=O)N(Cc2ccc(/C=C/c3ccccc3)cc2)C(C)(C)C1=O [Example 1, (R)-3-((S)-2-(4,4-Dimethyl-3-(4-styrylbenzyl)-2,5-dioxoimidazolidin-1-yl)-2-(2-methylpropyl)acetylamino)-3-methylpropionic Acid] | 3.2 µM
CC(C)C[C@@H](C(=O)N[C@H](C)CC(=O)O)N1C(=O)N(Cc2ccc(CCc3ccccc3)cc2)C(C)(C)C1=O [Example 2, (R)-3-((S)-2-(4,4-Dimethyl-3-(4-(2-phenylethyl)benzyl)-2,5-dioxoimidazolidin-1-yl)-2-(2-methylpropyl)acetylamino)-3-methylpropionic Acid] | 118 µM
Cc1ccccc1/C=C/c1ccc(CN2C(=O)N([C@@H](CC(C)C)C(=O)N[C@H](C)CC(=O)O)C(=O)C2(C)C)cc1 [Example 8, (R)-3-((S)-2-(4,4-Dimethyl-3-(4-(2-(2-methylphenyl)-vinyl)benzyl)-2,5-dioxoimidazolidin-1-yl)-2-(2-methyl-propyl)acetylamino)-3-methylpropionic Acid] | 2 µM
COc1cccc(C(CC(=O)O)NC(=O)[C@H](CC(C)C)N2C(=O)N(Cc3ccc(/C=C/c4ccccc4)cc3)C(C)(C)C2=O)c1 (stereo partly drawn) [Example 10, 3-((S)-2-(4,4-Dimethyl-3-(4-styrylbenzyl)-2,5-dioxo-imidazolidin-1-yl)-2-(2-methylpropyl)acetylamino)-3-(3-methoxyphenyl)propionic Acid] | 24.5 µM
CC(C)C[C@@H](C(=O)NC(CC(=O)O)c1ccc(F)cc1)N1C(=O)N(Cc2ccc(/C=C/c3ccccc3)cc2)C(C)(C)C1=O (stereo partly drawn) [Example 11, 3-((S)-2-(4,4-Dimethyl-3-(4-styrylbenzyl)-2,5-dioxo-imidazolidin-1-yl)-2-(2-methylpropyl)acetylamino)-3-(4-fluorophenyl)propionic Acid] | 18 µM
COc1ccc(C(CC(=O)O)NC(=O)[C@H](CC(C)C)N2C(=O)N(Cc3ccc(/C=C/c4ccccc4)cc3)C(C)(C)C2=O)cc1F (stereo partly drawn) [Example 12, 3-((S)-2-(4,4-Dimethyl-3-(4-styrylbenzyl)-2,5-dioxo-imidazolidin-1-yl)-2-(2-methylpropyl)acetylamino)-3-(3-fluoro-4-methoxyphenyl)propionic Acid] | 17.5 µM
Cc1cccc(C(CC(=O)O)NC(=O)[C@H](CC(C)C)N2C(=O)N(Cc3ccc(/C=C/c4ccccc4)cc3)C(C)(C)C2=O)c1 (stereo partly drawn) [Example 13, 3-((S)-2-(4,4-Dimethyl-3-(4-styrylbenzyl)-2,5-dioxo-imidazolidin-1-yl)-2-(2-methylpropyl)acetylamino)-3-(3-methylphenyl)propionic Acid] | 64.6 µM
CC(C)C[C@@H](C(=O)NC(CC(=O)O)c1cccc(F)c1)N1C(=O)N(Cc2ccc(/C=C/c3ccccc3)cc2)C(C)(C)C1=O (stereo partly drawn) [Example 15, 3-((S)-2-(4,4-Dimethyl-3-(4-styrylbenzyl)-2,5-dioxo-imidazolidin-1-yl)-2-(2-methylpropyl)acetylamino)-3-(3-fluorophenyl)propionic acid] | 61.5 µM
CC(C)C[C@@H](C(=O)NC(CC(=O)O)c1ccc(Cl)cc1)N1C(=O)N(Cc2ccc(/C=C/c3ccccc3)cc2)C(C)(C)C1=O (stereo partly drawn) [Example 17, 3-(4-Chlorophenyl)-3-((S)-2-(4,4-dimethyl-3-(4-styrylbenzyl)-2,5-dioxoimidazolidin-1-yl)-2-(2-methyl-propyl)acetylamino)propionic Acid] | 36.6 µM

Further compounds by falling IC50, results first:

IC50 | SMILES
34.9 µM | CCCCc1ccc(C(CC(=O)O)NC(=O)[C@H](CC(C)C)N2C(=O)N(Cc3ccc(/C=C/c4ccccc4)cc3)C(C)(C)C2=O)cc1 (stereo partly drawn) [Example 16, 3-(4-Butylphenyl)-3-((S)-2-(4,4-dimethyl-3-(4-styrylbenzyl)-2,5-dioxoimidazolidin-1-yl)-2-(2-methyl-propyl)acetylamino)propionic Acid]
27.8 µM | CC(C)C[C@@H](C(=O)NCCC(=O)O)N1C(=O)N(Cc2ccc(/C=C/c3ccccc3)cc2)C(C)(C)C1=O [Example 4, 3-((S)-2-(4,4-Dimethyl-3-(4-styrylbenzyl)-2,5-dioxo-imidazolidin-1-yl)-2-(2-methylpropyl)acetylamino)propionic Acid]
16.4 µM | CC(C)C[C@@H](C(=O)N[C@H](CC(=O)O)c1ccc2c(c1)OCO2)N1C(=O)N(Cc2ccc(Oc3ccccc3)cc2)C(C)(C)C1=O [Example 6, (R)-3-((S)-2-(4,4-Dimethyl-2,5-dioxo-3-(4-phenyloxy-20 benzyl)imidazolidin-1-yl)-2-(2-methylpropyl)acetylamino)-3-(3,4-methylenedioxyphenyl)propionic Acid]
15.3 µM | CC(C)C[C@@H](C(=O)NC(CC(=O)O)c1ccccc1F)N1C(=O)N(Cc2ccc(/C=C/c3ccccc3)cc2)C(C)(C)C1=O (stereo partly drawn) [Example 14, 3-((S)-2-(4,4-Dimethyl-3-(4-styrylbenzyl)-2,5-dioxo-imidazolidin-1-yl)-2-(2-methylpropyl)acetylamino)-3-(2-fluorophenyl)propionic Acid]
2.9 µM | CC(C)C[C@@H](C(=O)N[C@H](C)CC(=O)O)N1C(=O)N(Cc2ccc(OCc3ccccc3)cc2)C(C)(C)C1=O [Example 7, (R)-3-((S)-2-(3-(4-Benzyloxybenzyl)-4,4-dimethyl-2,5-dioxoimidazolidin-1-yl)-2-(2-methylpropyl)acetylamino)-3-methylpropionic Acid]
0.56 µM | CC(C)C[C@@H](C(=O)N[C@H](CC(=O)O)c1ccccc1)N1C(=O)N(Cc2ccc(/C=C/c3ccccc3)cc2)C(C)(C)C1=O [Example 3, (R)-3-((S)-2-(4,4-Dimethyl-3-(4-styrylbenzyl)-2,5-dioxoimidazolidin-1-yl)-2-(2-methylpropyl)acetylamino)-3-phenylpropionic Acid]
0.18 µM | Cc1ccccc1/C=C/c1ccc(CN2C(=O)N([C@@H](CC(C)C)C(=O)N[C@H](CC(=O)O)c3ccccc3)C(=O)C2(C)C)cc1 [Example 9, (R)-3-((S)-2-(4,4-Dimethyl-3-(4-(2-(2-methylphenyl)-vinyl)benzyl)-2,5-dioxoimidazolidin-1-yl)-2-(2-methyl-propyl)acetylamino)-3-phenylpropionic Acid]
0.15 µM | CC(C)C[C@@H](C(=O)N[C@H](CC(=O)O)c1ccc2c(c1)OCO2)N1C(=O)N(Cc2ccc(/C=C/c3ccccc3)cc2)C(C)(C)C1=O [Example 5, (R)-3-((S)-2-(4,4-Dimethyl-3-(4-styrylbenzyl)-2,5-dioxo-imidazolidin-1-yl)-2-(2-methylpropyl)acetylamino)-3-(3,4-methylenedioxyphenyl)propionic Acid]

— patent US6667334B1, “Imidazolidine derivatives, the production thereof, their use and pharmaceutical preparations containing the same” (Aventis Pharma Deutschland GmbH, priority 1998, dated 2003)
